Source: ChEMBL document CHEMBL6177962, “Design, synthesis and biological evaluation of 2-arylbenzo[b]furan-4-vinylcarbonyl derivatives based on Salvianolic acid C as antioxidant neuroprotective agents for the treatment of ischemic stroke” (Eur J Med Chem, 2025)
Calls of active or inactive are those of the source. The rule behind the calls is not given here.

Legend:
[1] = test system: PC-12; assay: Neuroprotective activity against t-BHP induced oxidative damage in rat PC12 cells model assessed as cell viability at 2.5 to 20 uM incubated for 24 hrs by CCK-8 assay; type: functional, cell-based; conditions: dose 2.5-20 µM
[2] = test system: PC-12; assay: Neuroprotective activity against t-BHP induced oxidative damage in rat PC12 cells model assessed as increase in NRF2 level incubated for 24 hrs by Western blot analysis; type: functional, cell-based; conditions: dose 2.5-10 µM
[3] = test system: Rattus norvegicus; assay: Neuroprotective activity against cerebral ischemia-reperfusion injury in MCAO rat model assessed as decrease in apoptotic cells in cerebral brain at 10 mg/kg, iv treated after 2 hrs ischemia followed by reperfusion measured after 1 week of post-reperfusion by TUNEL staining based analysis; type: functional, organism-based; conditions: time 1.0 weeks
[4] = test system: PC-12; assay: Antioxidant activity in t-BHP -induced rat PC12 cells at 2.5 to 20 uM; type: functional, cell-based; conditions: dose 2.5-20 µM
[5] = test system: PC-12; assay: Cytotoxicity against rat PC12 cells assessed as cell viability at 10 uM incubated for 24 hrs by CCK-8 assay relative to control; type: functional; conditions: read-out: Activity
[6] = test system: Rattus norvegicus; assay: Neuroprotective activity against cerebral ischemia-reperfusion injury in MCAO rat model assessed as decrease in apoptotic cells in cerebral brain at 20 mg/kg, iv treated after 2 hrs ischemia followed by reperfusion measured after 1 week of post-reperfusion by TUNEL staining based analysis; type: functional, organism-based; conditions: time 1.0 weeks
[7] = test system: Rattus norvegicus; assay: Neuroprotective activity against cerebral ischemia-reperfusion injury in MCAO rat model at 10 mg/kg, iv treated after 2 hrs ischemia followed by reperfusion measured after 1 week of post-reperfusion by barnes maze test; type: functional, organism-based; conditions: time 1.0 weeks
[8] = test system: Rattus norvegicus; assay: Neuroprotective activity against cerebral ischemia-reperfusion injury in MCAO rat model assessed as reduction in infarct area at 20 mg/kg, iv treated after 2 hrs ischemia followed by reperfusion measured after 1 week of post-reperfusion by TTC staining based analysis; type: functional, organism-based; conditions: time 1.0 weeks
[9] = test system: Rattus norvegicus; assay: (§1) Neuroprotective activity against cerebral ischemia-reperfusion injury in MCAO rat model assessed as reduction in infarct area at 5 to 20 mg/kg, iv treated after 2 hrs ischemia followed by reperfusion measured after 1 week of post-reperfusion by TTC staining based analysis; type: functional, organism-based; conditions: dose 5-20 mg/kg, time 1.0 weeks
[10] = test system: Rattus norvegicus; assay: In vivo activation of Nrf2 pathway in MCAO induced rat model assessed as increase in NRF2 level in brain at 5 to 20 mg/kg, iv by immunofluorescence analysis; type: functional, organism-based; conditions: dose 5-20 mg/kg
[11] = Metabolic stability in rat liver microsome assessed as parent compound remaining after 60 mins; type: ADME; conditions: liver microsomes, read-out: Stability
[12] = test system: Rattus norvegicus; assay: In vivo activation of Nrf2 pathway in MCAO induced rat model assessed as increase in NRF2 level in cytoplasm at 5 to 20 mg/kg, iv by Western blot analysis; type: functional, organism-based; conditions: dose 5-20 mg/kg
[13] = test system: PC-12; assay: Downregulation of KEAP1 expression in rat PC12 cells at 10 uM incubated for 3 hrs by Western blot analysis; type: functional, cell-based
[14] = test system: Rattus norvegicus; assay: Neuroprotective activity against cerebral ischemia-reperfusion injury in MCAO rat model assessed as decrease in apoptotic cells in cerebral brain at 5 mg/kg, iv treated after 2 hrs ischemia followed by reperfusion measured after 1 week of post-reperfusion by TUNEL staining based analysis; type: functional, organism-based; conditions: time 1.0 weeks
[15] = test system: PC-12; assay: Neuroprotective activity against t-BHP induced oxidative damage in rat PC12 cells model assessed as increase in SOD activity at 5 uM incubated for 24 hrs; type: functional, cell-based
[16] = test system: PC-12; assay: Neuroprotective activity against t-BHP induced oxidative damage in rat PC12 cells model assessed as increase in HO-1 level incubated for 24 hrs by Western blot analysis; type: functional, cell-based; conditions: dose 2.5-10 µM
[17] = test system: PC-12; assay: Neuroprotective activity against t-BHP induced oxidative damage in rat PC12 cells model assessed as attenuation of intracellular ROS level at 5 uM incubated for 24 hrs by DCFH-DA probe based analysis; type: functional, cell-based
[18] = test system: PC-12; assay: Neuroprotective activity against t-BHP induced oxidative damage in rat PC12 cells model assessed as attenuation of intracellular ROS level at 2.5 uM incubated for 24 hrs by DCFH-DA probe based analysis; type: functional, cell-based
[19] = test system: PC-12; assay: Neuroprotective activity against t-BHP induced oxidative damage in rat PC12 cells model assessed as decrease in MDA level at 10 uM incubated for 24 hrs; type: functional, cell-based
[20] = target: Kelch-like ECH-associated protein 1 (Rattus norvegicus) (UniProt P57790); assay: Binding affinity to KEAP1 in rat PC12 cells assessed as thermal stabilization at 10 uM incubated for 3 hrs at 4 degreeC by CETSA; type: cell-based
Sequence of Kelch-like ECH-associated protein 1 (Rattus norvegicus) (P57790 whole entry): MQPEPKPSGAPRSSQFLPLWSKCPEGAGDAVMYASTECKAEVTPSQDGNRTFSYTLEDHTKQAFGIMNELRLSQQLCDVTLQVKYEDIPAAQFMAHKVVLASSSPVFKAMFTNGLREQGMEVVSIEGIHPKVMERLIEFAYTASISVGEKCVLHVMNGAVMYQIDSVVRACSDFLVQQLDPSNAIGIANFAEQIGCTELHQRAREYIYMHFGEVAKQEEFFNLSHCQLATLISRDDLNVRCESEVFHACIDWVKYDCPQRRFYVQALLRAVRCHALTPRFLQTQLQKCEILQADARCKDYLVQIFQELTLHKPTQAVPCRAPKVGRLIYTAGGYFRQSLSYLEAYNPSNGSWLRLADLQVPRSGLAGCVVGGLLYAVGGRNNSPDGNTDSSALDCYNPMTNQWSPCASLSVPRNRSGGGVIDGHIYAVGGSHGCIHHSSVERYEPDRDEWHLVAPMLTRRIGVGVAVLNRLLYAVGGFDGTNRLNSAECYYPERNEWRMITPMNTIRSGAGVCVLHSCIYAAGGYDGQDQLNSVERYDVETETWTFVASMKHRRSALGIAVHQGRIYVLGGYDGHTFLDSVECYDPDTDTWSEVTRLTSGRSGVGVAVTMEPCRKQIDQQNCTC

[21] = test system: Rattus norvegicus; assay: Upregulation of NRF2 level in MCAO rat model at 5 to 20 mg/kg, iv by Western blot analysis; type: functional, organism-based; conditions: dose 5-20 mg/kg
[22] = test system: PC-12; assay: Neuroprotective activity against t-BHP induced oxidative damage in rat PC12 cells model assessed as reduction in intracellular ROS level at 10 uM incubated for 24 hrs by DCFH-DA probe based analysis; type: functional, cell-based
[23] = test system: PC-12; assay: Neuroprotective activity against t-BHP induced oxidative damage in rat PC12 cells model assessed as increase in SOD activity at 2.5 uM incubated for 24 hrs; type: functional, cell-based
[24] = test system: Rattus norvegicus; assay: In vivo activation of Nrf2 pathway in MCAO induced rat model assessed as increase in NRF2 level in nucleus at 5 to 20 mg/kg, iv by Western blot analysis; type: functional, organism-based; conditions: dose 5-20 mg/kg
[25] = test system: PC-12; assay: Cytotoxicity against rat PC12 cells assessed as cell viability at 40 uM incubated for 24 hrs by CCK-8 assay relative to control; type: functional; conditions: read-out: Activity
[26] = test system: Rattus norvegicus; assay: as §1, with “ROS accumulation in cortex” for “infarct area”, “dihydroethidium” for “TTC”, “based fluorescence microscopic” for “based”; type: functional, organism-based; conditions: dose 5-20 mg/kg, time 1.0 weeks
[27] = test system: PC-12; assay: Neuroprotective activity against t-BHP induced oxidative damage in rat PC12 cells model assessed as increase in SOD activity at 10 uM incubated for 24 hrs; type: functional, cell-based
[28] = test system: PC-12; assay: Neuroprotective activity against t-BHP induced oxidative damage in rat PC12 cells model assessed as cell viability at 10 uM incubated for 24 hrs by CCK-8 assay relative to control; type: functional; conditions: read-out: Activity
[29] = Permeability of the compound across blood brain barrier in mouse BEND3 cells at 10 uM incubated for 24 to 48 hrs by HPLC analysis; type: ADME, cell-based; conditions: time 24-48 hrs, read-out: permeability
[30] = test system: Rattus norvegicus; assay: […] of HO-1 level rat model at 5 to 20 mg/kg, iv by Western blot analysis; type: functional, organism-based; conditions: dose 5-20 mg/kg
[31] = test system: PC-12; assay: Neuroprotective activity against t-BHP induced oxidative damage in rat PC12 cells model assessed as reduction in intracellular ROS level at 2.5 to 10 uM incubated for 24 hrs by DCFH-DA probe based flow cytometry analysis; type: functional, cell-based; conditions: dose 2.5-10 µM
[32] = test system: PC-12; assay: Neuroprotective activity against t-BHP induced oxidative damage in rat PC12 cells model assessed as decrease in MDA level at 2.5 uM incubated for 24 hrs; type: functional, cell-based
[33] = test system: PC-12; assay: Neuroprotective activity against t-BHP induced oxidative damage in rat PC12 cells model assessed as decrease in MDA level at 5 uM incubated for 24 hrs; type: functional, cell-based

Which Activity [1] does the source give for COc1ccc(/C=C/C(=O)c2ccc(O)c(O)c2)c2cc(-c3ccc(C)cc3)oc12 here?
The Activity was “Active”.

And the Activity [2]?
Its Activity is “Dose-dependent-effect”.

What about the Activity [3] of the same compound?
Its Activity is “Active”.

And the Activity [4]?
The Activity was “Active”.

What about the viability at 10 µM [5] of the same compound?
Its viability at 10 µM is 101%.

And the Activity [6]?
The Activity was “Active”.

What about the Activity [7] of the same compound?
The Activity was “Active”.

And the Activity [8]?
Its Activity is “Active”.

And the Activity [9]?
The Activity was “Active”.

What about the Activity [10] of the same compound?
Its Activity is “Active”.

What about the remaining at 1 h [11] of the same compound?
Its remaining at 1 h is 63.8%.

And the Activity [12]?
The Activity was “Active”.

What about the Activity [13] of the same compound?
The Activity was “Active”.

And the Activity [14]?
Its Activity is “Active”.

And the Activity [15]?
Its Activity is “Active”.

What about the Activity [16] of the same compound?
The Activity was “Dose-dependent-effect”.

What about the Activity [17] of the same compound?
Its Activity is “Active”.

What about the Activity [18] of the same compound?
Its Activity is “Active”.

And the Activity [19]?
Its Activity is “Active”.

And the Activity [20]?
The Activity was “Active”.

What about the Activity [21] of the same compound?
The Activity was “Active”.

And the Activity [22]?
Its Activity is “Active”.

What about the Activity [23] of the same compound?
The Activity was “Active”.

And the Activity [24]?
Its Activity is “inactive”.

And the viability at 40 µM [25]?
Its viability at 40 µM is 109%.

What about the Activity [26] of the same compound?
The Activity was “Active”.

What about the Activity [27] of the same compound?
The Activity was “Active”.

And the viability at 10 µM [28]?
The viability at 10 µM was 95%.

What about the Papp at 10 µM [29] of the same compound?
Its Papp at 10 µM is 7.46 ×10⁻⁶ cm/s.

What about the Activity [30] of the same compound?
Its Activity is “Active”.

And the Activity [31]?
The Activity was “Active”.

What about the Activity [32] of the same compound?
Its Activity is “Active”.

And the Activity [33]?
The Activity was “Active”.
